According to patent US10702512B2, “Treatment of debilitating fatigue” (A. CARLSSON RESEARCH AB, priority 2015, dated 2020):

Columns and labels:
water solubility = format: physicochemical; conditions: hydrochloride, white powder
Method: The investigated substance is the S enantiomer with the chemical name (S)-3-[3-(methylsulfonyl) phenyl]-1-propylpiperidine hydrochloride, referred herein to as OSU6162. The substance is a white powder with a melting point of 177-182° C. and water solubility of >2000 mg/ml.

ME/CFS patients = experiment: mental fatigue self-assessment questionnaire (MFS) total score, phase II clinical study; format: in vivo, human
Method: As used herein, the term “MFS” refers to a the mental fatigue self-assessment questionnaire (Johansson B et al (2010) Brain Injury 2010; 24:2-12). […] Circular coated tablets for oral use of 15 mg and matching placebos was used. The tablets were administered by research nurses at the study site. The tablets were circular coated tablets for oral use containing 15 mg OSU6162. Matching placebos were used. The start dose was 15 mg OSU6162 twice daily (before breakfast and lunch) during 1 week with dose increase up to 30 mg twice daily during the following week. Efficacy was measured according to ratings using the self-assessment questionnaire for mental fatigue and related symptoms (MFS) after neurological disorders and injuries (Johansson et al, supra). Another primary endpoint was the result of the rating by the Clinical Global Impression of Change (Guy, supra), which rating was made by the doctor in charge of the patient. CGI-C scores range from 1 (very much improved) through to 7 (very much worse). To examine the effect of treatment and concomitant use of an antidepressant, antidepressant was included as a fixed factor in the analyses. […] Outcome targets FF, MFS and BDI were measured.

solubility (water solubility): > 2000 mg/mL
SMILES: CCCN1CCC[C@@H](c2cccc(S(C)(=O)=O)c2)C1.Cl [OSU6162, (3S)-3-[3-(methylsulfonyl)-phenyl]-1-propylpiperidine hydrochloride]
MFS overall group difference between OSU6162 and placebo (ME/CFS patients; 2-way ANOVA, F1,60=3.997, p=0.050): borderline significant trend
MFS interaction between treatment with OSU6162 and antidepressant over time (ME/CFS patients; 3-way ANOVA week*treatm*antidepr, F3,180=2.755, p=0.044): statistically significant 3-way interactions
MFS overall difference between OSU6162 and placebo (ME/CFS patients; 3-way analysis with antidepressant as fixed factor, F1,60=3.578, p=0.063): tendency to an overall difference
MFS difference between OSU6162 treated and placebo treated patients (ME/CFS patients; patients not on antidepressant therapy, post hoc comparison): No difference
MFS change from week 0, difference OSU6162 vs placebo (95% CI) (ME/CFS patients; patients on stable antidepressant therapy, after one week of treatment, F1,56=5.915, p=0.018, Bonferroni): −4.82 (−8.79 to −0.85)
